{
  "source": "ChEMBL document CHEMBL1201862",
  "about": "“PubChem BioAssay data set” (2004)",
  "key": {"[1]": {"molecular_target": "Sphingosine 1-phosphate receptor 2 (Homo sapiens, UniProt O95136)", "test": "Dose Response Cell Based Assay for Agonists of the S1P2 Receptor. [Related pubchem assays: 729, 736, 843 ]", "format": "functional"}, "[2]": {"molecular_target": "Sphingosine 1-phosphate receptor 1 (Homo sapiens, UniProt P21453)", "test": "Fluorescence-based counterscreen assay for S1P4 agonists: Cell-based dose response high throughput screening assay to identify agonists of the Sphingosine 1-Phosphate Receptor 1 (S1P1). [Related pubchem assays (depositor defined):AID1509, AID1523, AID1801, AID463107, AID463118, AID463119, AID463122, AID463123, AID463129, AID463225, AID504400, AID504460]", "format": "functional"}, "[3]": {"molecular_target": "Sphingosine 1-phosphate receptor 4 (Homo sapiens, UniProt O95977)", "test": "Fluorescence dose response cell-based high throughput screening assay for agonists of the Sphingosine 1-Phosphate Receptor 4 (S1P4). [Related pubchem assays: 1509 (Primary screen.), 1523 (Confirmation screen in triplicates.)]", "format": "functional"}, "[4]": {"molecular_target": "T1, Tyrosine-protein phosphatase non-receptor type 7 (Homo sapiens, UniProt P35236)", "T1 sequence (P35236 whole entry)": "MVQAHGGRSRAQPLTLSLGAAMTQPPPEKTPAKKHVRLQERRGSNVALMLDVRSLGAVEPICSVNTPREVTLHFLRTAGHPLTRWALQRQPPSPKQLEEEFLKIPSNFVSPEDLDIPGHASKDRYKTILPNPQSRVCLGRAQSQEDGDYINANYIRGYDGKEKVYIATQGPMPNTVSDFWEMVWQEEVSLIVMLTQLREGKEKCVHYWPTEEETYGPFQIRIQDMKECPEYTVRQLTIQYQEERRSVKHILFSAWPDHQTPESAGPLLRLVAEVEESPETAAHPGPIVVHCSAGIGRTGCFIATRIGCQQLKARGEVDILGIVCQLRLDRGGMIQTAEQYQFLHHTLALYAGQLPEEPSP", "test": "inhibition of hematopoietic tyrosine phosphatase HePTP – biochemical, set 2, SAR follow-up (AID 449736)", "format": "functional"}, "[5]": {"molecular_target": "T2, Cannabinoid receptor 2 (Homo sapiens, UniProt P34972)", "test": "SAR analysis of agonists of the Cannabinoid Receptor 2 using an Image-Based Assay - Set 3. [Related pubchem assays (depositor defined):AID2013, AID2026]", "format": "functional"}, "[6]": {"molecular_target": "T2, Cannabinoid receptor 2", "test": "SAR analysis of antagonists of the Cannabinoid Receptor 2 using an Image-Based Assay - Set 3. [Related pubchem assays (depositor defined):AID2013, AID2026]", "format": "functional"}, "[7]": {"molecular_target": "T3, Cannabinoid receptor 1 (Homo sapiens, UniProt P21554)", "test": "SAR analysis of agonists of the Cannabinoid Receptor 1 using an Image-Based Assay - Set 4. [Related pubchem assays (depositor defined):AID2013, AID2026]", "format": "functional"}, "[8]": {"molecular_target": "T3, Cannabinoid receptor 1", "test": "SAR analysis of antagonists of the Cannabinoid Receptor 1 using an Image-Based Assay - Set 4. [Related pubchem assays (depositor defined):AID2013, AID2026]", "format": "functional"}, "[9]": {"molecular_target": "T4, G-protein coupled receptor 35 (Homo sapiens, UniProt Q9HC97)", "test": "SAR analysis of Agonists of the GPR35 Receptor using an Image-Based Assay - Set 4. [Related pubchem assays (depositor defined):AID2013, AID2026]", "format": "functional"}, "[10]": {"molecular_target": "G-protein coupled receptor 55 (Homo sapiens, UniProt Q9Y2T6)", "test": "SAR Analysis of Selective Antagonists of GPR55 using an Image-Based Assay - Set 4. [Related pubchem assays (depositor defined):AID2013, AID2026]", "format": "functional"}, "[11]": {"molecular_target": "T4, G-protein coupled receptor 35", "test": "SAR analysis of Antagonists of the GPR35 Receptor using an Image-Based Assay - Set 6. [Related pubchem assays (depositor defined):AID2013, AID2026]", "format": "functional"}, "[12]": {"molecular_target": "Glucose-6-phosphate 1-dehydrogenase (Homo sapiens, UniProt P11413)", "test": "inhibition of Homo sapiens G6PD, dose series – biochemical, fluorescence, selectivity assay for P. falciparum G6PD inhibitor project, dose response (AID 504792)", "format": "functional"}, "[13]": {"molecular_target": "Intestinal-type alkaline phosphatase (Homo sapiens, UniProt P09923)", "test": "activation of human intestinal alkaline phosphatase – biochemical, dose response (AID 488873)", "format": "functional"}, "[14]": {"molecular_target": "T5, Fibrinogen beta chain (Homo sapiens, UniProt P02675)", "test": "Fluorescence polarization-based biochemical high throughput dose response assay to identify inhibitors that disrupt the binding of a cyclic peptide (Tn6) to the fibrin proteolytic product D-Dimer and fragment E complex [DD(E )]."}, "[15]": {"molecular_target": "Cyclin-dependent kinase 5/CDK5 activator 1 (Homo sapiens, UniProt Q00535)", "test": "blockade of human CDK5 activity – biochemical, cherry-picked samples, set 2, dose response (AID 504545)"}, "[16]": {"molecular_target": "T6, Alkaline phosphatase, tissue-nonspecific isozyme (Homo sapiens, UniProt P05186)", "T6 sequence (P05186 whole entry)": "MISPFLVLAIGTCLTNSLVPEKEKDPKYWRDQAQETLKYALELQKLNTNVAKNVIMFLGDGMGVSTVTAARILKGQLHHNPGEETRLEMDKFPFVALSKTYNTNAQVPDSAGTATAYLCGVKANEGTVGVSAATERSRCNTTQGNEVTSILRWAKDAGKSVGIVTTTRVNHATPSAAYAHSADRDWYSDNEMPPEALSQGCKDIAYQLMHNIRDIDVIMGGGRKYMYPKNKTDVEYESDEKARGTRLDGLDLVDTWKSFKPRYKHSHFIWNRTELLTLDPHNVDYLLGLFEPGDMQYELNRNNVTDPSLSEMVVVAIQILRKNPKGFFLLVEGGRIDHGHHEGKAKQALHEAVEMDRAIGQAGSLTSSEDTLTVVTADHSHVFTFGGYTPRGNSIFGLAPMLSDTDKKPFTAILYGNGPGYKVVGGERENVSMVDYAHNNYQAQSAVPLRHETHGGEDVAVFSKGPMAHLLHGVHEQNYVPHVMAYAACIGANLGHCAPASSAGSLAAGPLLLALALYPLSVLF", "test": "activation of tissue-nonspecific alkaline phosphatase – biochemical, TNAP isozyme, mouse IAP uHTS hits, selectivity assay for mouse IAP activator project, dose response (AID 488880)", "format": "functional"}, "[17]": {"molecular_target": "Major prion protein (Homo sapiens, UniProt P04156)", "format": "functional, cell-based"}, "[18]": {"molecular_target": "Genome polyprotein (dengue virus type 2, UniProt P29990)", "test": "flavivirus cap methylation enzyme inhibition – biochemical, confirmation dose response, primary screen (AID 588689)", "format": "functional"}, "[19]": {"molecular_target": "Induced myeloid leukemia cell differentiation protein Mcl-1 (Homo sapiens, UniProt Q07820)", "format": "functional"}, "[20]": {"molecular_target": "Large T antigen (Simian virus 40, UniProt P03070)", "format": "functional, Betapolyomavirus macacae"}, "[21]": {"molecular_target": "T7, Endoribonuclease toxin MazF (Escherichia coli K-12, UniProt P0AE70)", "T7 sequence (P0AE70 whole entry)": "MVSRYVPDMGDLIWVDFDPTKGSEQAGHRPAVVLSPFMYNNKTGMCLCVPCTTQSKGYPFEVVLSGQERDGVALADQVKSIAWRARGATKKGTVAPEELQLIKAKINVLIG", "test": "substrate-only fluorescence increase artefacts – biochemical, single-stranded RNase substrate, counter-screen for MazEF activator project, dose response (AID 588502)", "format": "functional"}, "[22]": {"molecular_target": "T7, Endoribonuclease toxin MazF", "test": "activation of MazEF endoribonuclease cleavage – biochemical, fluorescence, single-stranded RNA substrate, uHTS hits, dose response (AID 588481)", "format": "functional"}, "[23]": {"test": "cells"}, "[24]": {"molecular_target": "T5, Fibrinogen beta chain", "test": "Fluorescence polarization-based biochemical high throughput dose response assay to identify inhibitors that disrupt the binding of a cyclic peptide (Tn7) to the fibrin proteolytic product D-Dimer and fragment E complex [DD(E )]."}, "[25]": {"molecular_target": "Intestinal-type alkaline phosphatase (Mus musculus, UniProt P24822)", "test": "mouse intestinal alkaline phosphatase activators, dose response, biochemical, luminescence, uHTS hits (AID 488783)", "format": "functional"}},
  "note": "Activity calls are given as the source filed them.",
  "data": [
    {"smiles": "Clc1ccc(N2N=C(c3cccs3)CC2c2ccco2)cc1", "note": "(stereo not given)", "values": [
      {"measurement": "EC50", "setting": "[1]", "result": "2.71 µM (active)"},
      {"measurement": "EC50", "setting": "[2]", "result": "5.98 µM (active)"},
      {"measurement": "EC50", "setting": "[3]", "result": "9.2 µM (active)"}
    ]},
    {"smiles": "Cc1ccc(C)c(-n2c(N)c(C(=O)N3CCCCC3)sc2=S)c1", "values": [
      {"measurement": "IC50", "setting": "[4]", "result": "> 100 µM (inactive)"}
    ]},
    {"smiles": "Cc1[nH]nc(-c2ccc(OCCN3CCOCC3)cc2O)c1-c1ccc(Cl)cc1", "values": [
      {"measurement": "EC50", "setting": "[5]", "result": "> 32 µM (inactive)"},
      {"measurement": "IC50", "setting": "[6]", "result": "29.1 µM (inactive)"},
      {"measurement": "EC50", "setting": "[7]", "result": "> 32 µM (inactive)"},
      {"measurement": "IC50", "setting": "[8]", "result": "2.11 µM (active)"},
      {"measurement": "EC50", "setting": "[9]", "result": "> 32 µM (inactive)"},
      {"measurement": "IC50", "setting": "[10]", "result": "19.2 µM (inactive)"},
      {"measurement": "IC50", "setting": "[11]", "result": "> 32 µM (inactive)"}
    ]},
    {"smiles": "Oc1cc2c(cc1O)C1c3ccc(O)c(O)c3OCC1(O)C2", "note": "(stereo not given) [HAEMATOXYLIN]", "values": [
      {"measurement": "IC50", "setting": "[12]", "result": "66.5 µM (inactive)"},
      {"measurement": "EC50", "setting": "[13]", "result": "50 µM (active)"},
      {"measurement": "IC50", "setting": "[14]", "result": "9.33 µM (active)"},
      {"measurement": "AC50", "setting": "[15]", "result": "17.5 µM (active)"},
      {"measurement": "EC50", "setting": "[16]", "result": "85.7 µM (active)"},
      {"measurement": "IC50", "setting": "[17]", "result": "14 µM (inactive)"},
      {"measurement": "IC50", "setting": "[18]", "result": "17.4 µM (active)"},
      {"measurement": "IC50", "setting": "[19]", "result": "3.44 µM (active)"},
      {"measurement": "IC50", "setting": "[20]", "result": "4.66 µM (active)"},
      {"measurement": "EC50", "setting": "[21]", "result": "72.8 µM (inactive)"},
      {"measurement": "EC50", "setting": "[22]", "result": "30.1 µM (inactive)"},
      {"measurement": "IC50", "setting": "[23]", "result": "> 138 µM (inactive)"},
      {"measurement": "IC50", "setting": "[24]", "result": "> 83.3 µM (inactive)"},
      {"measurement": "EC50", "setting": "[25]", "result": "62.1 µM (active)"}
    ]}
  ]
}
